Data: ChEMBL document CHEMBL3132860 (Medchemcomm, 2013)
pEC50: −log10 of the molar value.

Legend:
Estrogen receptor beta [1] = target: T1, Estrogen receptor beta (Homo sapiens, UniProt Q92731); assay: Agonist activity at ER-beta (unknown origin) transfected in HEK293T cells after 24 hrs by Steady-Glo luciferase reporter gene assay relative to estradiol; assay type: cell-based; conditions: HEK-293T
Estrogen receptor = target: T2, Estrogen receptor (Homo sapiens, UniProt P03372)
T2 sequence (P03372 whole entry): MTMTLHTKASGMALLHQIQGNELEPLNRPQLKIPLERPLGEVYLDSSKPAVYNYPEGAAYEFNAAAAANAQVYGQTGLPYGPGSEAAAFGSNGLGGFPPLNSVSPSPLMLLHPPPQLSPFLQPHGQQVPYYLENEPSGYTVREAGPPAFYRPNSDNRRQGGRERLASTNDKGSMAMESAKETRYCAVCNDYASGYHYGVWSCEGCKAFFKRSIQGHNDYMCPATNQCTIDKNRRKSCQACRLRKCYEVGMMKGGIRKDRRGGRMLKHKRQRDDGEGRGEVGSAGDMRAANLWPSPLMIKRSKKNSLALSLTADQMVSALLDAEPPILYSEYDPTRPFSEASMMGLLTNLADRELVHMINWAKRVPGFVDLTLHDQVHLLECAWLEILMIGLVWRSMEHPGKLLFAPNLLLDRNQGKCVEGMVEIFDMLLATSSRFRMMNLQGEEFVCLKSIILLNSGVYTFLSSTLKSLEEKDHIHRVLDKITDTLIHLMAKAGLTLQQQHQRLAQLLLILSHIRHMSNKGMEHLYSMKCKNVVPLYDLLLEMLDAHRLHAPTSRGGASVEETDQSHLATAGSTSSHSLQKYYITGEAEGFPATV
Description: Agonist activity at ER-alpha (unknown origin) transfected in HEK293T cells after 24 hrs by Steady-Glo luciferase reporter gene assay

Estrogen receptor beta [2] = target: T1, Estrogen receptor beta
Estrogen receptor beta [3] = target: T1, Estrogen receptor beta; assay: Agonist activity at human ER-beta transfected in human 293 cells assessed as ALP reporter protein expression after 72 hrs by chemiluminescence assay; assay type: cell-based

T1 sequence (Q92731 whole entry): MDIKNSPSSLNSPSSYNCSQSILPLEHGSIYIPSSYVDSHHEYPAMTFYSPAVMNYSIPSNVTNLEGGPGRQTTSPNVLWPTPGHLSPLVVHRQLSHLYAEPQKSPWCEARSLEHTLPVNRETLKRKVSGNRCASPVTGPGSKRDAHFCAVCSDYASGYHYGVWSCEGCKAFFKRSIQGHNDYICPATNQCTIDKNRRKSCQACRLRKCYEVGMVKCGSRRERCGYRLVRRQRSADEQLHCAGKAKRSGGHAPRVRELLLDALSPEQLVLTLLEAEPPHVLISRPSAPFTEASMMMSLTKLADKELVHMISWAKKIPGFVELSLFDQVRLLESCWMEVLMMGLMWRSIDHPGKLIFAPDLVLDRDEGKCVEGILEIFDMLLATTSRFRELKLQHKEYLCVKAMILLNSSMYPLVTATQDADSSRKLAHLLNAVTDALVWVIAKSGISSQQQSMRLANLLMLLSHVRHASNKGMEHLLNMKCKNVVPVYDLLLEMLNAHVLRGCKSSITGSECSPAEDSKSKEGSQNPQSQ

Row | SMILES | Efficacy (Estrogen receptor beta [1]) [%] | pEC50 (Estrogen receptor) | pEC50 (Estrogen receptor beta [2]) | pEC50 (Estrogen receptor beta [3])
1 | C[C@]12CC[C@@H](c3ccc(O)cc3)C[C@H]1CCC2=O | 144 | 5.10 | 6.90 | –
2 | C[C@]12CC[C@H](c3ccc(O)cc3)C[C@H]1CCC2=O | 148 | < 5.00 | 6.60 | –
3 | C[C@]12CC[C@@H]3c4ccc(O)cc4CC[C@H]3[C@@H]1C[C@H](O)[C@H]2O | – | – | – | 7.96
4 | C[C@]12CC[C@@H]3c4ccc(O)cc4CC[C@H]3[C@@H]1C[C@@H](O)[C@@H]2O [ESTRIOL] | – | – | 9.90 | –

The remaining molecules from weak to strong by pEC50 (Estrogen receptor beta [2]), led by results:

Row | Efficacy (Estrogen receptor beta [1]) [%] | pEC50 (Estrogen receptor) | pEC50 (Estrogen receptor beta [2]) | pEC50 (Estrogen receptor beta [3]) | SMILES
5 | 108 | 5.00 | 7.70 | – | C[C@]12CC[C@H](c3ccc(O)cc3)C[C@H]1C[C@H](O)[C@H]2O
6 | 127 | 7.50 | 9.40 | – | C[C@]12CCC(c3ccc(O)cc3)C[C@H]1CC[C@@H]2O (some centres undefined)
